Experimental data from US6413975B1, “Purine derivatives having phosphodiesterase iv inhibition activity” (Euro-Celtique, S.A., priority 1999, dated 2002).
Where a name gives a salt, the structure may show the parent alone. Read-outs that look alike come from different tables or passages of the source.

Tested on: Type IV PDE
Experiment: PDE IV inhibition: hydrolysis of [3H]-cyclic AMP by isolated Type IV PDE
Type: biochemical, bovine
Protocol: The Type IV PDE is isolated from bovine tracheal smooth muscle using a procedure similar to that previously described by Silver, P. J., Hamel, L. T., Perrone, M. H. Bentley, R. G. Bushover, C. R., Evans, D. B.: Eur. J. Pharmacol. 150:85,1988.(1). Briefly, smooth muscle from bovine trachea is minced and homogenized using a polytron in 10 volumes of an extraction buffer containinhg 10 mM Tris-acetate (pH 7.5), 2 mM magnesium chloride, 1 mM dithiothreitol and 2,000 units/ml of aprotinin. This and all subsequent procedures are performed at 0-4° C. The homogenate is sonicated and then centrifiged at 48,000×g for 30 minutes. The resulting supernatant is applied to a DEAE Trisacryl M column previously equilibrated with sodium acetate and dithiothreitol. After applications of the sample, the column is washed with sodium acetate/dithiothreitol, after which the different forms of PDE are eluted from the column using a linear Tris-HCl/NaCl gradient. Fractions containing Type IV PDE are collected, dialyzed and concentrated to 14% of the original volume. The concentrated fractions are diluted to 50% with ethylene glycol and stored at -20° C.
Enzyme activity is assessed by measuring the hydrolysis of [^3H]-cyclic AMP, as described by Thompson, W. J., Teraski, W. L., Epstein, P. N., Strada, S. J.: Adv. Cyclic Nucleotide Res. 10:69, 1979. The cyclic AMP concentration used in this assay is 0.2 μM, which approximates the Km value. Protein concentration is adjusted to ensure that no more than 15% of the available substrate is hydrolyzed during the incubation period.
All test compounds are dissolved in dimethyl sulfoxide (final concentration of 2.5%). This concentration of dimethyl sulfoxide inhibits enzyme activity by approximately 10%.

[1] = dithioxanthines, Table 5, read-out: IC50 PDE IV
[2] = adenines, Table 7, read-out: calc PDE IV IC50

| Structure (SMILES) | IC50 [2] [nM] | other results |
| --- | --- | --- |
| CCCn1c(=S)[nH]c(=S)c2[nH]c(C(C)C)nc21 [3,7-dihydro-8-isopropyl-3-propyl-2,6-dithio-1H-purine-2,6-dione] |  | IC50 [1]: 3500 nM |
| CC(C)c1nc2c([nH]1)c(=S)[nH]c(=S)n2Cc1ccccc1Cl [3-(2-chlorobenzyl)-3,7-dihydro-8-isopropyl-2,6-dithio-1H-purine-2,6-dione] |  | IC50 [1]: 7740 nM |
| CCNc1ncn(Cc2ccc(OC)c(OC3CCC(O)C3)c2)c2nc(C(C)C)nc1-2 (centres unmarked) [3-(3-((3-hydroxy)cyclopentyloxy)-4-methoxybenzyl)-6-ethylami] [3-(3-((3-hydroxy)cyclopentyloxy)-4-methoxybenzyl)-6-ethylamino-8-isopropyl-3H-purine] | 1360 |  |
| CCNc1ncn(Cc2ccc(OC)c(OC3CCCC3)c2)c2ncnc1-2 [3-(3-Cyclopentyloxy-4-methoxybenzyl)-6-ethylamino-3H-purine Hydrochloride] |  | IC50 (read-out: PDE IV I50): 2150 nM |
| CCNc1ncn(Cc2ccc(OC)c(OCc3ccccc3)c2)c2nc(C(C)C)nc1-2 [3-(3-benzyloxy-4-methoxy-benzyl)-6-ethylamino-8-isopropyl-3H-purine] | 1300 |  |
| CCNc1ncn(Cc2cccc(Cl)c2)c2nc(C(C)C)nc1-2 [3-(3-chlorobenzyl)-6-ethylamino-8-isopropyl-3H-purine] | 2150 |  |
| COc1ccc(Cn2c(=S)[nH]c(=S)c3[nH]cnc32)cc1OC1CCCC1 [3-(3-cyclopentyloxy-4-methoxybenzyl)-3,7-dihydro-2,6-dithio-1H-purine-2,6-dione] |  | IC50 [1]: 16200 nM |
| COc1ccc(CNc2ncn(Cc3ccc(OC)c(OC4CCCC4)c3)c3nc(C(C)C)nc2-3)cc1OC1CCCC1 [3-(3-cyclopentyloxy-4-methoxybenzyl)-6-(3-cyclopentyloxy-4-methoxybenzylamino)-8-isopropyl-3H-purine] | 1140 |  |
| COc1ccc(Cn2cnc(NCC(F)(F)F)c3nc(C(C)C)nc2-3)cc1OC1CCCC1 [3-(3-cyclopentyloxy-4-methoxybenzyl)-6-((2,2,2-trifluoroethyl)amino)-8-isopropyl-3H-purine] | 12800 |  |
| CCN(C(=O)c1ccccc1)c1ncn(Cc2ccc(OC)c(OC3CCCC3)c2)c2nc(C(C)C)nc1-2 [3-(3-cyclopentyloxy-4-methoxybenzyl)-6-(N-benzoyl-N-ethylamino)-8-isopropyl-3H-purine] | 1430 |  |
| COc1ccc(Cn2cnc(N)c3nc(C(C)C)nc2-3)cc1OC1CCCC1 [3-(3-cyclopentyloxy-4-methoxybenzyl)-6-amino-8-isopropyl-3H-purine] | 820 |  |
| CC(C)c1nc2c([nH]1)c(NC1CCCC1)nc(=S)n2Cc1ccc(Cl)cc1 [3-(4-chlorobenzyl)-6-cyclopentylamino-3,7-dihydro-8-isopropyl-2-thio-2H-purin-2-one] |  | IC50 (thioisoguanines, Table 2, cyclic AMP 0.2 μM, read-out: Calc IC50 PDE IV): 114000 nM |
| CC(C)c1nc2c([nH]1)c(=S)[nH]c(=S)n2Cc1ccc(Cl)cc1 [3-(4-chlorobenzyl)-8-isopropyl)-3,7 dihydro-2,6-dithio-3,7-purine-2,6-dione] |  | IC50 [1]: 2400 nM; IC50 (read-out: PDE IV I50): 2270 nM |

Now from value to compound, other results behind:

| IC50 [2] [nM] | Structure (SMILES) | other results |
| --- | --- | --- |
| 19300 | COc1ccc(Cn2cnc(N(C)C)c3nc(C(C)C)nc2-3)cc1OC1CCCC1 [3-(3-cyclopentyloxy-4-methoxybenzyl)-6-dimethylamino-8-isopropyl-3H-purine] |  |
| 11200 | CCNc1nc(NCC)n(Cc2ccc(Cl)cc2)c2nc(C(C)C)nc1-2 [3-(4-chlorobenzyl)-2,6-di(ethylamino)-8-isopropyl-3H-purine] |  |
| 4480 | CC(C)c1nc2c(NC3(O)CCCC3)ncn(Cc3ccc(Cl)cc3)c-2n1 [3-(4-chlorobenzyl)-6-((1-hydroxy)cyclopentylamino)-8-isopropyl-3H-purine] |  |
| 4700 | CC(C)c1nc2c(NC3CCCC3)ncn(Cc3ccc(Cl)cc3)c-2n1 [3-(4-chlorobenzyl)-6-cyclopentylamino-8-isopropyl-3H-purine] |  |
| 1690 | CC(C)c1nc2c(NC3CC3)ncn(Cc3ccc(Cl)cc3)c-2n1 [3-(4-chlorobenzyl)-6-cyclopropylamino-8-isopropyl-3H-purine] |  |
| 6500 | CCNc1ncn(-c2ccc(Cl)cc2)c2nc(C(C)C)nc1-2 [3-(4-chlorophenyl)-6-ethylamino-8-isopropyl-3H-purine] |  |
